Test results published in paper PMC2248166, “Quantitative peptide binding motifs for 19 human and mouse MHC class I molecules derived using positional scanning combinatorial peptide libraries” (Immunome Research, 2008).

target: H-2 D^b (Mus musculus, UniProt P01899); experiment: not given; type: binding; conditions: not given
Sequence (P01887 21-119): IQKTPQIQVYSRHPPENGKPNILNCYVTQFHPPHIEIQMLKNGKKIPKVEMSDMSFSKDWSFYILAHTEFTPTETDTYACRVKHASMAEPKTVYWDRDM
Sequence (P01899 25-362): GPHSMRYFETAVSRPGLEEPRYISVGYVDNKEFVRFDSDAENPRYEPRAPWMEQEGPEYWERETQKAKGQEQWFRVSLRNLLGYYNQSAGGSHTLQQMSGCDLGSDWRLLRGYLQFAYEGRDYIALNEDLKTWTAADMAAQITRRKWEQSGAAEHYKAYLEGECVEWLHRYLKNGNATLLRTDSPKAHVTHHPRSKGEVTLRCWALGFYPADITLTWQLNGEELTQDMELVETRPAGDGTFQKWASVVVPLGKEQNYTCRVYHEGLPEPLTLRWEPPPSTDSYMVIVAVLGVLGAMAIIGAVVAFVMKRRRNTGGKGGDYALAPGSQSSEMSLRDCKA

Sequence	Normalized average relative binding affinity (ARB), H-2 Db
XXLXXXXXX [3064.0050]	1.0
XXMXXXXXX [3064.0051]	0.31
XXNXXXXXX [3064.0052]	0.25
XXPXXXXXX [3064.0053]	0.38

target: HLA B*0801 (Homo sapiens, UniProt P01889, A93T/A95T/D138N/E176V/E187T/K202T/Q94N/R180D/S35A/V36M/Y33D/Y91F); experiment: biochemical; type: binding; conditions: not given

Sequence	Normalized average relative binding affinity (ARB), HLA B*0801
XXLXXXXXX [3064.0050]	0.21
XXMXXXXXX [3064.0051]	0.90
XXNXXXXXX [3064.0052]	0.11
XXPXXXXXX [3064.0053]	0.072

target: H-2 D^d (Mus musculus, UniProt P01900); experiment: not given; type: binding; conditions: not given
Sequence (P01900 whole entry, looked up): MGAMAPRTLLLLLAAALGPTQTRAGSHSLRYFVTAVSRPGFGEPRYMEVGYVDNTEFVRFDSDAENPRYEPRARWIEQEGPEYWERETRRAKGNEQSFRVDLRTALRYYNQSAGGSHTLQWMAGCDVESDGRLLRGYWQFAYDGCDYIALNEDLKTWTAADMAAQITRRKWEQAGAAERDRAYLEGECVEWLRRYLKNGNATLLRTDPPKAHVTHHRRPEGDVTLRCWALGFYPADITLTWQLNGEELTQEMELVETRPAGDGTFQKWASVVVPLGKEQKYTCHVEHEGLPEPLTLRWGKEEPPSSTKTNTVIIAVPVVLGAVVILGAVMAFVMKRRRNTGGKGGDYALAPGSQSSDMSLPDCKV

Sequence	Normalized average relative binding affinity (ARB), H-2 Dd
XXLXXXXXX [3064.0050]	0.0040
XXMXXXXXX [3064.0051]	0.0095
XXNXXXXXX [3064.0052]	0.0028
XXPXXXXXX [3064.0053]	1.0

target: HLA A*3201 (Homo sapiens, UniProt P04439, A270S/D101S/D185E/E176V/E277Q/F133L/G103R/G107R/G231S/H175R/I121M/I218V/I322F/K168Q/L105A/L300P/L318F/M331R/P208A/P217A/Q94H/R106L/R138Q/S129P/T104I/T323A/T345S/V100E/V321M/V358M); experiment: biochemical; type: binding; conditions: not given

Sequence	Normalized average relative binding affinity (ARB), HLA A*3201
XXLXXXXXX [3064.0050]	0.58
XXMXXXXXX [3064.0051]	0.94
XXNXXXXXX [3064.0052]	0.76
XXPXXXXXX [3064.0053]	0.13

target: HLA B*5802 (Homo sapiens, UniProt P01889, A329T/C349S/D201E/D98Y/E176V/E187L/E204Q/E69T/G107R/I218V/I90N/K202T/L105A/N104I/N87E/Q89R/Q94S/R106L/R155S/R180L/R86G/S101N/S121W/S35A/S48A/V127L/V306I/V36M/Y140S/Y91M); experiment: not given; type: binding; conditions: not given

Sequence	Normalized average relative binding affinity (ARB), HLA B*5802
XXLXXXXXX [3064.0050]	0.59
XXMXXXXXX [3064.0051]	0.57
XXNXXXXXX [3064.0052]	0.098
XXPXXXXXX [3064.0053]	0.047

target: HLA B*5401 (Homo sapiens, UniProt P01889, A329T/C349S/D138N/D201E/E176V/E187T/E204Q/E69G/I76V/K202T/L119W/R155S/R180L/S121T/S35A/S48A/V127L/V306I/V36M/Y140L); experiment: not given; type: binding; conditions: not given

Sequence	Normalized average relative binding affinity (ARB), HLA B*5401
XXLXXXXXX [3064.0050]	0.040
XXMXXXXXX [3064.0051]	0.24
XXNXXXXXX [3064.0052]	0.14
XXPXXXXXX [3064.0053]	0.013

target: HLA A*6802 (Homo sapiens, UniProt P04439, A269V/D140Y/D185E/E176V/E277Q/E87N/F33Y/G231S/I121R/I166T/I218V/L180W/L300P/L318F/N151K/P208A/P217A/Q86R/R138H/R169H/S129P/T345S/V36M); experiment: not given; type: binding; conditions: not given

Sequence	Normalized average relative binding affinity (ARB), HLA A*6802
XXLXXXXXX [3064.0050]	0.10
XXMXXXXXX [3064.0051]	1.0
XXNXXXXXX [3064.0052]	0.27
XXPXXXXXX [3064.0053]	0.043

target: HLA B*0702 (Homo sapiens, UniProt P01889); experiment: not given; type: binding; conditions: positional scanning combinatorial 9-mer library; normalized to 1.0 for the best residue at each position

Sequence	Normalized average relative binding affinity (ARB), HLA B*0702
XXLXXXXXX [3064.0050]	0.071
XXMXXXXXX [3064.0051]	1.0
XXNXXXXXX [3064.0052]	0.077
XXPXXXXXX [3064.0053]	0.014

target: HLA B*1503 (Homo sapiens, UniProt P01889, A329T/A93T/A95T/C349S/D201E/D98Y/E187L/E204Q/K202T/N87E/Q94N/R155S/R180L/S121R/S35A/V306I/V36M/Y140S/Y91S); experiment: biochemical; type: binding; conditions: not given

Sequence	Normalized average relative binding affinity (ARB), HLA B*1503
XXLXXXXXX [3064.0050]	0.043
XXMXXXXXX [3064.0051]	0.33
XXNXXXXXX [3064.0052]	0.24
XXPXXXXXX [3064.0053]	0.058

target: HLA B*5301 (Homo sapiens, UniProt P01889, A329T/A93T/A95T/C349S/D201E/D98Y/E176V/E187L/E204Q/E69T/G107R/I218V/K202T/L105A/L119I/N104I/Q94N/R106L/R155S/R180L/S101N/S121R/S35A/S48A/T118I/V127L/V306I/V36M/Y140S/Y91F); experiment: not given; type: binding; conditions: not given

Sequence	Normalized average relative binding affinity (ARB), HLA B*5301
XXLXXXXXX [3064.0050]	0.59
XXMXXXXXX [3064.0051]	1.0
XXNXXXXXX [3064.0052]	0.22
XXPXXXXXX [3064.0053]	0.010

target: HLA B*2705 (Homo sapiens, UniProt P01889, D138H/D201E/E176V/E204Q/G107R/H137Y/K202T/N104T/N87E/Q56L/Q94K/R106L/R155S/R180L/S101D/S121N/S48T/Y140D/Y33H/Y91C); experiment: not given; type: binding; conditions: positional scanning combinatorial 9-mer library; normalized to 1.0 for the best residue at each position

Sequence	Normalized average relative binding affinity (ARB), HLA B*2705
XXLXXXXXX [3064.0050]	0.55
XXMXXXXXX [3064.0051]	0.87
XXNXXXXXX [3064.0052]	0.23
XXPXXXXXX [3064.0053]	0.027

target: HLA B*5801 (Homo sapiens, UniProt P01889, A329T/C349S/D201E/D98Y/E176V/E187L/E204Q/E69T/G107R/I218V/I90N/K202T/L105A/L119I/N104I/N87E/Q89R/Q94S/R106L/R155S/R180L/R86G/S101N/S121R/S35A/S48A/T118I/V127L/V306I/V36M/Y140S/Y91M); experiment: not given; type: binding; conditions: not given

Sequence	Normalized average relative binding affinity (ARB), HLA B*5801
XXLXXXXXX [3064.0050]	0.61
XXMXXXXXX [3064.0051]	0.48
XXNXXXXXX [3064.0052]	0.88
XXPXXXXXX [3064.0053]	0.042

target: H-2 K^k (Mus musculus, UniProt P04223); experiment: not given; type: binding; conditions: not given
Sequence (P01887 21-119): as the sequence (P01887 21-119) above
Sequence (P04223 22-369): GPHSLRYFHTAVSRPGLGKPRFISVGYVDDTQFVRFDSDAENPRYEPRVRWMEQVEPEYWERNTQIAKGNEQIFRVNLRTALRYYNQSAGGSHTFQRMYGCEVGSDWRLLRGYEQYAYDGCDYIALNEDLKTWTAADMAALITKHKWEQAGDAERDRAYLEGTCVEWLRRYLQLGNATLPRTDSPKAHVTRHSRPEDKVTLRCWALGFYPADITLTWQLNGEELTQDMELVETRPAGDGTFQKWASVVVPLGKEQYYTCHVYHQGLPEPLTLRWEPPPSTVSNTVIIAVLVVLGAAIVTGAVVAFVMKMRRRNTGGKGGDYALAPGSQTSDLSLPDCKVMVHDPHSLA

Sequence	Normalized average relative binding affinity (ARB), H-2 Kk
XXLXXXXXX [3064.0050]	0.70
XXMXXXXXX [3064.0051]	1.0
XXNXXXXXX [3064.0052]	0.40
XXPXXXXXX [3064.0053]	0.035

target: HLA B*3501 (Homo sapiens, UniProt P01889, A329T/A93T/A95T/C349S/D201E/D98Y/E176V/E187L/E204Q/E69T/I218V/K202T/L119I/Q94N/R155S/R180L/S121R/S35A/S48A/T118I/V127L/V306I/V36M/Y140S/Y91F); experiment: not given; type: binding; conditions: not given

Sequence	Normalized average relative binding affinity (ARB), HLA B*3501
XXLXXXXXX [3064.0050]	0.43
XXMXXXXXX [3064.0051]	1.0
XXNXXXXXX [3064.0052]	0.32
XXPXXXXXX [3064.0053]	0.089

target: HLA B*1501 (Homo sapiens, UniProt P01889, A329T/A93T/A95T/C349S/D201E/D98Y/E187L/E204Q/E69M/E70A/K202T/N87E/Q94N/R155S/R180W/S121R/S35A/S48A/V306I/V36M/Y140S/Y91S); experiment: biochemical; type: binding; conditions: not given

Sequence	Normalized average relative binding affinity (ARB), HLA B*1501
XXLXXXXXX [3064.0050]	0.18
XXMXXXXXX [3064.0051]	0.77
XXNXXXXXX [3064.0052]	0.46
XXPXXXXXX [3064.0053]	0.32

target: HLA B*5101 (Homo sapiens, UniProt P01889, A329T/A93T/A95T/C349S/D138N/D201E/D98Y/E187L/E204Q/E69T/G107R/I218V/K202T/L105A/L119W/N104I/Q94N/R106L/R155S/R180L/S101N/S121T/S35A/S48A/V306I/V36M/Y195H/Y91F); experiment: not given; type: binding; conditions: not given

Sequence	Normalized average relative binding affinity (ARB), HLA B*5101
XXLXXXXXX [3064.0050]	0.54
XXMXXXXXX [3064.0051]	1.0
XXNXXXXXX [3064.0052]	0.27
XXPXXXXXX [3064.0053]	0.42

target: HLA A*3001 (Homo sapiens, UniProt P04439, D140H/D185E/E176W/F33S/G80R/H175R/K168Q/R138E/R41S); experiment: biochemical; type: binding; conditions: not given

Sequence	Normalized average relative binding affinity (ARB), HLA A*3001
XXLXXXXXX [3064.0050]	0.033
XXMXXXXXX [3064.0051]	0.028
XXNXXXXXX [3064.0052]	0.017
XXPXXXXXX [3064.0053]	0.0036

target: HLA A*0201 (Homo sapiens, UniProt P04439, D140Y/D185E/D98H/E176V/E277Q/G131W/G231S/I119V/I121R/I166T/I218V/L300P/L318F/N151K/N90K/P208A/P217A/Q86G/Q94H/R138H/R169H/T345S); experiment: not given; conditions: positional scanning combinatorial 9-mer library; normalized to 1.0 for the best residue at each position

Sequence	Normalized average relative binding affinity (ARB), HLA A*0201
XXLXXXXXX [3064.0050]	0.57
XXMXXXXXX [3064.0051]	1.0
XXNXXXXXX [3064.0052]	0.16
XXPXXXXXX [3064.0053]	0.056
